# According to US20050222259A1, “Methods of activating PPAR-alpha nuclear receptors in mammals” (priority 2004, published 2005):
# Assay: oral application of conjugated fatty acids: appetite, satiety and food intake
# Format: in vivo
# Conditions: for appetite-reducing effect compared with other CLA isomers and non-conjugated linoleic acid: comparison of isomers
Compound,appetite-reducing effect compared with other CLA isomers and non-conjugated linoleic acid,"appetite-reducing effect compared with other CLA isomers and non-conjugated linoleic acid (listed as cis-9,trans-11 isomer of conjugated linoleic acid)","effect on appetite, satiety and food intake (oral application)"
"CCCCCC/C=C/C=C\CCCCCCCC(=O)O (single isomer, unassigned) [cis-9,trans-11 CLA-isomer, cis-9,trans-11 isomer of conjugated linoleic acid]",most efficacious in inhibiting appetite,more pronounced,
conjugated linoleic acid [CLA],,,reduction of appetite
